Laboratory results reported in US5202348A, “Thiarubrine antifungal agents” (The University of British Columbia, priority 1990, dated 1993).
Converted amounts (≈) assume the structure as drawn. Read-outs that look alike come from different tables or passages of the source.

What was measured:
bacteriophage M13 = conditions: cited from earlier work
bacteriophage T4 = conditions: in UV-A only; cited from earlier work
E. coli [1] = assay: Growth inhibition of E. coli during 24 hours exposure; type: cell-based, Escherichia coli; conditions: Escherichia coli, 24 h, read-out: Minimal concentration causing 100% growth inhibition
C. albicans [2] = assay: LC50 (24 hrs.), doses required to inhibit growth in 50%, different method; type: cell-based, Candida albicans; conditions: Candida albicans, 24 h, read-out: LC50 (24 hrs.), dose required to inhibit growth in 50%
Excerpt: Doses Required to Inhibit Growth of C. albicans
in 50% During 24 hrs. (ng/ml)

WEHI-3 = assay: Growth inhibition of WEHI-3 during 24 hours exposure; type: cell-based, Mouse; conditions: Mus musculus, WEHI-3, 24 h, read-out: Concentration causing 50% growth inhibition
Description: (§1) WEHl3 = Mouse myelomonocyte
(§2) Doses inhibiting growth in 50% were estimated by plotting concentration o
(§3) a logarithmic scale and percent of growth inhibition for 24 hours exposur
(§4) on a probability scale.

[3] = as above; type: cell-based, Mouse; conditions: mouse, wehi-3 cells; Table 2; read-out: Toxicity Index, LC50 WEHI-3 / LC50 C. albicans
Description: as §1, §2, §3, §4

P815 mastocytoma = assay: LC50 (24 hrs.), doses required to inhibit growth in 50%, different method; type: cell-based; conditions: Mus musculus, P815, 24 h, read-out: LC50 (24 hrs.), dose required to inhibit growth in 50%
[4] = Growth inhibition of 3T3 during 24 hours exposure; type: cell-based, Mouse; conditions: mouse, 3t3 cells; Table 2; read-out: Toxicity Index, LC50 3T3 / LC50 C. albicans
Description: (§5) 3T3 = Mouse fibroblasts
as §2, §3, §4

3T3 = assay: Growth inhibition of 3T3 during 24 hours exposure; type: cell-based, Mouse; conditions: Mus musculus, NIH3T3, 24 h, read-out: Concentration causing 50% growth inhibition
Description: as §5, §2, §3, §4

C. albicans [5] = assay: Growth inhibition of C. albicans during 24 hours exposure; type: cell-based, Candida albicans; conditions: Candida albicans, 24 h
Description: as §2, §3, §4

[6] = test system: murine cytomegalovirus and Sindbis virus; conditions: phototoxic activity; cited from earlier work
P815 = assay: Growth inhibition of P815 mastocytoma during 24 hours exposure; type: cell-based, Mouse
Description: (§6) P815 = Mouse mastocytoma […]
as §3, §4

[7] = as above; type: cell-based, Mouse; conditions: mouse, p815 cells
Description: as §6, §3, §4

Aspergillus fumigatus [8] = assay: Sensitivity of Aspergillus fumigatus, agar diffusion method; type: cell-based; conditions: read-out: Zone of Growth Inhibition
Excerpt: Results were obtained by agar diffusion method. Disc diameter - 6 mm. -* = no zone over disc diameter.

C. albicans [9] = assay: Growth inhibition of C. albicans during 24 hours exposure; type: cell-based, Candida albicans; conditions: Candida albicans, 24 h, read-out: Minimal concentration causing 100% growth inhibition
E. coli [10] = assay: Growth inhibition of E. coli during 24 hours exposure; type: cell-based, Escherichia coli; conditions: Escherichia coli, 24 h, read-out: Minimal concentration causing 50% growth inhibition
Description: as §2, §3, §4

bacteria = assay: Anti-bacterial activity (summary); type: cell-based; conditions: Table 14
Sindbis virus = conditions: only in presence of UV-A radiation; cited from earlier work
mouse cells = conditions: cited from earlier work
murine cytomegalovirus = conditions: only in presence of UV-A radiation; cited from earlier work
P. aeruginosa = assay: Growth inhibition of P. aeruginosa during 24 hours exposure; type: cell-based, Pseudomonas aeruginosa; conditions: Pseudomonas aeruginosa, 24 h
Description: as §2, §3, §4

Coenorhabditis elogans = conditions: cited from earlier work
Candida = assay: Anti-Candida activity (summary); type: cell-based; conditions: Table 14;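 further: Letter grades where Y means active and y means less active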
Hycobacteria sp. = conditions: cited from earlier work
Aspergillus = assay: Anti-Aspergillus activity (summary); type: cell-based; conditions: Table 14;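 further: Letter grades where Y means active and y means less active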
Aspergillus fumigatus [11] = conditions: concentrations comparable to those of amphotericin B; cited from earlier work
Candida albicans = conditions: concentrations comparable to those of amphotericin B; cited from earlier work
[12] = Growth inhibition of L1210 during 24 hours exposure; type: cell-based, Mouse; conditions: mouse, l1210 cells; Table 2; read-out: Toxicity Index, LC50 L1210 / C. albicans
Description: (§7) L1210 = Mouse lymphocytic leukemia
as §2, §3, §4

L1210 = assay: as above; type: cell-based, Mouse; conditions: Mus musculus, L1210, 24 h, read-out: Concentration causing 50% growth inhibition
Description: as §7, §2, §3, §4

Escherichia coli = conditions: cited from earlier work
Bacillus subtilis = conditions: cited from earlier work
[13] = read-out: Minimal concentration causing 50% growth inhibition

Question: What does the source list for C=CC#CC#CC1=CC=C(C#CC)SS1 [Thiarubrine A, 3 - (1- -propynyl) 6 (5-hexen-3-yn-1-ynyl)1,2-dithiacyclohexa-3,5-diene]?
Answer: Effect on bacteriophage (bacteriophage M13): completely unaffected; Effect on bacteriophage (bacteriophage T4): slightly affected; MIC (E. coli [1]): 0.625 µg/mL (≈ 2.74 µM); IC50 (C. albicans [2]): 0.04 µg/mL (≈ 0.175 µM); IC50 (WEHI-3): 0.027 µg/mL (≈ 0.118 µM); selectivity ratio at 24 h [3]: 1; IC50 (P815 mastocytoma): 0.081 µg/mL (≈ 0.355 µM); selectivity ratio at 24 h [4]: 12; IC50 (3T3): 0.45 µg/mL (≈ 1.97 µM); IC50 (C. albicans [5]; read-out: Concentration causing 50% growth inhibition): 0.028 µg/mL (≈ 0.123 µM); IC50 (C. albicans [5]; [13]): 0.028 µg/mL (≈ 0.123 µM); Order of potency [6]: alpha-terthienyl thiarubrine-A > phenylheptatriyne > ACBP-thiophene > thiophene-A; Ratio of concentration needed to inhibit growth in 50%, P815 vs C. albicans (P815; 50% growth inhibition, Table 4): the same; IC50 (P815; Mus musculus, P815, 24 h, read-out: Concentration causing 50% growth inhibition): 0.035 µg/mL (≈ 0.153 µM); IC50 (P815; Mus musculus, P815, 24 h, read-out: Minimal concentration causing 50% growth inhibition): 0.035 µg/mL (≈ 0.153 µM); IC100 (P815; Mus musculus, P815, 24 h, read-out: Minimal concentration causing 100% growth inhibition): 0.625 µg/mL; selectivity ratio at 24 h ([7]; 100% growth inhibition, Table 3, read-out: Ratio of minimal concentration causing 100% growth inhibition, P815 line vs C. albicans): ~4; selectivity ratio at 24 h ([7]; Table 2, read-out: Toxicity Index, LC50 P815 / LC50 C. albicans): 1; zone of inhibition at 0.01 µg/disc (Aspergillus fumigatus [8]): 8 mm; zone of inhibition at 0.1 µg/disc (Aspergillus fumigatus [8]): 19 mm; zone of inhibition at 1 µg/disc (Aspergillus fumigatus [8]): 27 mm; zone of inhibition at 10 µg/disc (Aspergillus fumigatus [8]): 27 mm; MIC (C. albicans [9]): 0.16 µg/mL (≈ 0.701 µM); IC50 (E. coli [10]): 0.18 µg/mL (≈ 0.788 µM); Anti-bacterial (bacteria): Y; Sensitivity of virus (Sindbis virus): extremely sensitive; Sensitivity of mouse cells (mouse cells; in presence of UV-A): moderately sensitive; Sensitivity of mouse cells (mouse cells; in the dark): somewhat less sensitive; Sensitivity of virus (murine cytomegalovirus): extremely sensitive; IC50 (P. aeruginosa; [13]): 0.68 µg/mL (≈ 2.98 µM); MIC (P. aeruginosa; read-out: Minimal concentration causing 100% growth inhibition): 2.5 µg/mL (≈ 10.9 µM); Cytotoxic activity (Coenorhabditis elogans): cytotoxic activity; Anti-Candida (Candida): Y; Cytotoxic activity (Hycobacteria sp.): cytotoxic activity; Anti-Aspergillus (Aspergillus): Y; Antifungal activity (Aspergillus fumigatus [11]): strong antifungal activity; Antifungal activity (Candida albicans): strong antifungal activity; selectivity ratio at 24 h [12]: 1; IC50 (L1210): 0.035 µg/mL (≈ 0.153 µM); Cytotoxic activity (Escherichia coli): cytotoxic activity; Cytotoxic activity (Bacillus subtilis): cytotoxic activity
